Results taken from article PMC9569790, “From Solution Studies of Pharmaceuticals (Aspirin and Related Compounds) to the Thermodynamics of Aspirin-β-Cyclodextrin Interaction in water and N,N-Dimethylformamide” (International Journal of Molecular Sciences, 2022).
Read-outs that look alike come from different tables or passages of the source. Marks after values point to notes of the source that are not given here. Values belong to the compound of their own block, whether it stands above or below them.

Experiments:
[1] = Conductance measurements in water; assay type: physicochemical; conditions: for Ionic conductivity at infinite dilution of the anion, λA^−: from Λ^0m and λH^+ = 349.8
Description: H^+ (aq) + A^− (aq) ⇌ HA (aq)(1)
The ion-pair formation constant for the process described by Equation (1) is expressed in terms of activities, a, as shown in Equation (2): (2) Kip=aHA/aH^+∗aA^−=HA∗γHA/H^+∗[A^−]∗γ±i^2
The conductivity cell constant was determined by the method of Jones and Bradshaw [39] as previously reported [24]. Conductance measurements were performed using the Wayne Kerr Autobalance Universal Bridge, type B642, and the Wayne Kerr Model 7330 Automatic LCR Meter Conductivity Bridge at a frequency of 1 Hz. […] Conductance readings at 298.15 K were recorded after each addition.

[2] = Transfer thermodynamic parameters from water to DMF; assay type: physicochemical; conditions: 298.15 K
From the text: As mentioned earlier, ΔsH^0 is made by the contribution of the crystal lattice enthalpy and the solvation enthalpy. In order to remove the contribution of the crystal lattice process, it is a common practice to calculate the transfer thermodynamic parameters according to the following process: […]

[3] = Gibbs free energy and entropies of solution in water, corrected for ion-pair formation; assay type: physicochemical; conditions: 298.15 K; for pKsp: corrected for ion-pair formation; for ΔsG^0, standard Gibbs energy of solution: standard state 1 mol dm^−3
From the text: In Equation (2), concentrations are in mol dm^−3, and γ ± i^2 is the mean molar ionic coefficient calculated by the use of the Debye–Hückel equation, where γHA is the activity coefficient of the un-ionized species. In very dilute solutions, γHA may be considered equal to unity. As far as the standard Gibbs energy of the solution in the standard state of 1 mol dm^−3, ∆sG^0, is concerned, the application of Equation (3) requires knowledge of the ion-pair formation constant in solution. The availability of Kip and solubilities in water allows the calculation the ionic molar concentration, ci, and the molar concentration of ion pairs, cip, as previously shown. The data refer to the standard state (1 mol dm^−3). ΔsG^0= −RTln (ci^2 * γ±i^2)(3)
In Equation (6), aH^+ and aA^− represent the activities of the species H^+ and A^− in solution respectively. The activity of the solid is unity by convention. The activity, a, on the molar scale (mol dm^−3) is related to the ionic molar concentration, ci, by the mean molar ionic activity coefficient, γ ± i.
Thus:K^0sp = ci^2 ∗ γ ± i^2 (7)
The availability of Gibbs energy (Equation (3)) and enthalpy values allows the calculation of the entropy of solution, ΔsS. For this purpose, the following equation was used.

[4] = Calorimetric enthalpies of solution in water; assay type: physicochemical; conditions: 298.15 K; for ΔsH^0, standard enthalpy of solution: average of the ΔsH values
From the text: No measurements could be carried out at higher concentrations since the dissolution rate of this compound in water was relatively slow. […] Since there were no systematic changes in the ΔsH values with changes in the concentration of solute, the standard ΔsH^0 value reported in Table 3 is the average value. In the dissolution of a solute in water or any other solvent, there are two processes involved, as described in Equation (5):ΔsH^0 = ΔclH^0 + ΔsolvH^0(5)
(§1) The reliability of the calorimeter was checked by carrying out the standard reaction based on the protonation of an aqueous solution of tris-(hydroxymethyl)aminomethane (THAM) with an aqueous solution of hydrochloric acid (0.1 mol dm^−3) at 298.15 K (Equation (11)). H2NC(CH2OH)3(aq) + H3O+ (aq) → H3N+C(CH2OH)3(aq) + H2O(aq)(11)
(§2) The system was then placed in a water bath until thermal equilibrium was attained, after which the ampoule was broken into the solvent and the process was monitored by the chart recorder. The observed heat was corrected for the heat of the breaking of the empty ampoule in the solvent. The standard enthalpy of the solution, ∆sH^0, was found from […].

[5] = Calorimetric enthalpies of solution in DMF; assay type: physicochemical; conditions: 298.15 K; for ΔsH^0, standard enthalpy of solution: average of the ΔsH values
From the text: All observed heats were corrected for the heat from breaking the empty ampoules in DMF (Q = −0.0518 J). Since there were no systematic changes in the ΔsH values with changes in the concentration of the solute, the reported standard ΔsH^0 values are the average values of the data reported in Table 5. This table also includes the standard deviations of the data.
as §1, §2

[6] = water, same temperature, conductimetry; cited from earlier work
[7] = Solvate formation test in a solvent-saturated atmosphere; assay type: physicochemical; conditions: water
Description: (§3) The mixtures were left in a thermostatic bath at 298.15 K until equilibrium was reached. Aliquots of the saturated solutions were removed and analyzed gravimetrically by taking a known volume of sample, evaporating the solvent and then weighing the solid in a dry atmosphere. The weighing process was repeated until a constant weight was obtained. The analytical determination was carried out in triplicate on the same equilibrium mixture. Solvate formation was tested by storing the compounds over water or DMF in a desiccator containing an atmosphere saturated with the appropriate solvent over a period of at least four days.

[8] = Solubility measurements (gravimetric analysis of saturated solutions) in water; assay type: physicochemical
Description: as §3

[9] = design: method as in PMID 16509753; conditions: water, 298 K, cited from earlier work
[10] = water; cited from earlier work
[11] = Conductance measurements in DMF; assay type: physicochemical; conditions: 298.15 K
Description: Conductance measurements were performed using the Wayne Kerr Autobalance Universal Bridge, type B642, and the Wayne Kerr Model 7330 Automatic LCR Meter Conductivity Bridge at a frequency of 1 Hz. […] Conductance readings at 298.15 K were recorded after each addition.

[12] = water, cited from earlier work
[13] = Interaction of acetylsalicylic acid with β-cyclodextrin in DMF (titration calorimetry); assay type: binding; conditions: nonionized guest, 298 K
Description: For deriving the thermodynamic parameters of the interaction of cyclodextrin and these pharmaceuticals in these solvents, the four-channel microcalorimeter was used.
The latter was added from a 2 cm^3 burette connected by a silicone tube to the reaction vessel after thermal equilibrium was reached. These experiments were carried out in duplicate. For each solvent, blank experiments were performed to account for the dilution effects resulting from the addition of the appropriate anion salt to the solvent placed in the calorimetric vessel.

Structure (SMILES): CC(=O)Oc1ccc(C(=O)O)cc1 [4-acetoxybenzoic acid]
Ka, dissociation constant ([1]; water, 298.15 K): 4.55 × 10^−5
Kip, ion-pair formation constant ([1]; water, 298.15 K): 22 × 10^3
Λ^0m, molar conductance at infinite dilution ([1]; water, 298.15 K): 401 S cm^2 mol^−1
pKa ([1]; water, 298.15 K, conductance, read-out: pKa): 4.34
ΔtH^0, enthalpy of transfer [2]: -3.85 kcal/mol
ΔsS^0, entropy of solution [3]: −58 J K^−1 mol^−1
pKsp [3]: 6.57
ΔsG^0, standard Gibbs energy of solution [3]: 8.96 kcal/mol
ΔsH^0, standard enthalpy of solution [4]: 4.78 kcal/mol
ΔsH^0, standard enthalpy of solution ([4]; listed as 4-Acetoxybenzoic Acid): ΔsH^0 = 20 ± 1 kJ mol^−1
ΔsH, enthalpy of solution ([4]; c = 4.51 × 10^−4 mol dm^−3): 4.52 kcal/mol
ΔsH, enthalpy of solution ([4]; c = 4.57 × 10^−4 mol dm^−3): 4.381 kcal/mol
ΔsH, enthalpy of solution ([4]; c = 4.66 × 10^−4 mol dm^−3): 4.84 kcal/mol
ΔsH, enthalpy of solution ([4]; c = 4.90 × 10^−4 mol dm^−3): 4.902 kcal/mol
ΔsH, enthalpy of solution ([4]; c = 6.17 × 10^−4 mol dm^−3): 4.928 kcal/mol
ΔsH, enthalpy of solution ([4]; c = 6.75 × 10^−4 mol dm^−3): 5.017 kcal/mol
ΔsH^0, standard enthalpy of solution [5]: 0.932 ± 0.024 kcal/mol
ΔsH, enthalpy of solution ([5]; c = 1.03 × 10^−3 mol dm^−3): 0.93 kcal/mol
ΔsH, enthalpy of solution ([5]; c = 1.18 × 10^−3 mol dm^−3): 0.98 kcal/mol
ΔsH, enthalpy of solution ([5]; c = 1.26 × 10^−3 mol dm^−3): 0.949 kcal/mol
ΔsH, enthalpy of solution ([5]; c = 1.60 × 10^−3 mol dm^−3): 0.954 kcal/mol
ΔsH, enthalpy of solution ([5]; c = 1.82 × 10^−3 mol dm^−3): 0.908 kcal/mol
pKa (literature) [6]: 4.38
Solvate formation [7]: not detected

Structure (SMILES): CC(=O)c1ccc(O)c(C(=O)O)c1 [5-acetylsalicylic acid]
pKa [1]: 3.04
Ka, dissociation constant ([1]; water, 298.15 K): 9.09 × 10^−4
Kip, ion-pair formation constant ([1]; water, 298.15 K): 11 × 10^2
Λ^0m, molar conductance at infinite dilution ([1]; water, 298.15 K): 389 S cm^2 mol^−1
ΔtH^0, enthalpy of transfer [2]: -5.11 kcal/mol
ΔsS^0, entropy of solution [3]: −15 J K^−1 mol^−1
pKsp [3]: 5.74
ΔsG^0, standard Gibbs energy of solution [3]: 7.82 kcal/mol
ΔsH^0, standard enthalpy of solution [4]: 6.74 kcal/mol
ΔsH^0, standard enthalpy of solution ([4]; listed as 5-Acetylsalicylic Acid): ΔsH^0 = 28.2 ± 0.3 kJ mol^−1
ΔsH, enthalpy of solution ([4]; c = 2.58 × 10^−4 mol dm^−3): 6.862 kcal/mol
ΔsH, enthalpy of solution ([4]; c = 2.66 × 10^−4 mol dm^−3): 6.795 kcal/mol
ΔsH, enthalpy of solution ([4]; c = 4.49 × 10^−4 mol dm^−3): 6.74 kcal/mol
ΔsH, enthalpy of solution ([4]; c = 6.67 × 10^−4 mol dm^−3): 6.663 kcal/mol
ΔsH, enthalpy of solution ([4]; c = 7.05 × 10^−4 mol dm^−3): 6.807 kcal/mol
ΔsH, enthalpy of solution ([4]; c = 8.05 × 10^−4 mol dm^−3): 6.673 kcal/mol
ΔsH^0, standard enthalpy of solution [5]: 1.63 ± 0.048 kcal/mol
ΔsH, enthalpy of solution ([5]; c = 1.11 × 10^−3 mol dm^−3): 1.58 kcal/mol
ΔsH, enthalpy of solution ([5]; c = 1.45 × 10^−3 mol dm^−3): 1.59 kcal/mol
ΔsH, enthalpy of solution ([5]; c = 1.76 × 10^−3 mol dm^−3): 1.57 kcal/mol
ΔsH, enthalpy of solution ([5]; c = 2.07 × 10^−3 mol dm^−3): 1.59 kcal/mol
ΔsH, enthalpy of solution ([5]; c = 2.18 × 10^−3 mol dm^−3): 1.69 kcal/mol
ΔsH, enthalpy of solution ([5]; c = 2.38 × 10^−3 mol dm^−3): 1.66 kcal/mol
Solubility, S [8]: (3.46 ± 0.22) ∗ 10^−3 mol dm^−3
Solvate formation [7]: not detected

Structure (SMILES): CC(=O)Oc1ccccc1C(=O)O [acetylsalicylic acid, reference compound]
Ka, dissociation constant ([1]; water, 298.15 K): 1.75 × 10^−4
Kip, ion-pair formation constant ([1]; water, 298.15 K): 57 × 10^2
Λ^0m, molar conductance at infinite dilution ([1]; water, 298.15 K): 392 S cm^2 mol^−1
Fraction hydrolyzed at the end of the conductance measurements ([1]; water, estimated from data of Pierre and Jencks [25]): 5%
ΔtH^0, enthalpy of transfer [2]: -0.789 kcal/mol
ΔsS^0, entropy of solution [3]: −67 J K^−1 mol^−1
pKsp [3]: 5.45
ΔsG^0, standard Gibbs energy of solution [3]: 7.43 kcal/mol
log Kass ([9]; pH 1.75, nonionized guest, calculated from Kass of ref 15): 2.74 ^a
log Ks ([9]; pH 6.00, ionized guest, calculated from Ks of ref 15): 1.71 ^a
Apparent enthalpy of solution (literature, van ’t Hoff equation) [10]: 5.47 kcal/mol
Speciation in solution from conductance [11]: undissociated
ΔsH^0, standard enthalpy of solution ([4]; listed as Acetylsalicylic Acid): ΔsH^0 = 11.1 ± 0.6 kJ mol^−1
ΔsH^0, standard enthalpy of solution ([4]; listed as Acetylsalicylic acid): 2.65 kcal/mol
ΔsH, enthalpy of solution ([4]; c = 2.40 × 10^−4 mol dm^−3): 2.823 kcal/mol
ΔsH, enthalpy of solution ([4]; c = 3.51 × 10^−4 mol dm^−3): 2.5 kcal/mol
ΔsH, enthalpy of solution ([4]; c = 4.66 × 10^−4 mol dm^−3): 2.44 kcal/mol
ΔsH, enthalpy of solution ([4]; c = 5.13 × 10^−4 mol dm^−3): 2.646 kcal/mol
ΔsH, enthalpy of solution ([4]; c = 5.26 × 10^−4 mol dm^−3): 2.686 kcal/mol
ΔsH, enthalpy of solution ([4]; c = 5.99 × 10^−4 mol dm^−3): 2.799 kcal/mol
ΔsH^0, standard enthalpy of solution [5]: 1.86 ± 0.048 kcal/mol
ΔsH, enthalpy of solution ([5]; c = 1.10 × 10^−3 mol dm^−3): 1.79 kcal/mol
ΔsH, enthalpy of solution ([5]; c = 1.48 × 10^−3 mol dm^−3): 1.8 kcal/mol
ΔsH, enthalpy of solution ([5]; c = 5.74 × 10^−4 mol dm^−3): 1.96 kcal/mol
ΔsH, enthalpy of solution ([5]; c = 6.42 × 10^−4 mol dm^−3): 1.87 kcal/mol
ΔsH, enthalpy of solution ([5]; c = 8.62 × 10^−4 mol dm^−3): 1.84 kcal/mol
ΔsH, enthalpy of solution ([5]; c = 9.10 × 10^−4 mol dm^−3): 1.87 kcal/mol
Solubility (literature, molar scale) ([12]; 299.65 K): 2.31 × 10^−2 mol dm^−3
Solubility (literature) [12]: 1.78 × 10^−2 mol/dm^−3
log Kass [13]: 4.66 ± 0.03 ^b
Solubility, S [8]: (2.20 ± 0.28) ∗ 10^−2 mol dm^−3
Solvate formation [7]: not detected

The remaining lines, values ahead:

Ionic conductivity at infinite dilution of the anion, λA^− ([1]; water, 298.15 K): 39.2 S cm^2 mol^−1
Structure (SMILES): CC(=O)c1ccc(O)c(C(=O)O)c1 [5-acetylsalicylate]

Ionic conductivity at infinite dilution of the anion, λA^− ([1]; water, 298.15 K): 42.2 S cm^2 mol^−1
Structure (SMILES): CC(=O)Oc1ccccc1C(=O)O [acetylsalicylate]
